Earlier results as cited in patent US5977101A, “Benzimidazoles/Imidazoles Linked to a Fibrinogen Receptor Antagonist Template Having Vitronectin Receptor Antagonist Activity” (SmithKline Beecham Corporation, priority 1996, dated 1999).

What was measured:
osteoclasts = details: Sato et al. 1990; Bertolini et al.
bone resorption [1] = details: rat; Fisher et al., Endocrinology 1993
bone resorption [2] = details: Sato et al., J. Cell Biol. 1990

| Substance | inhibition of attachment of osteoclasts to bone (osteoclasts) | inhibition of bone resorption in vivo (bone resorption [1]) | inhibition of bone resorption in tissue culture (bone resorption [2]) |
| --- | --- | --- | --- |
| echistatin | inhibits | inhibits | potent inhibitor |
| cylco-S,S-N^α -acetyl-cysteinyl-N^α -methyl-argininyl-glycyl-aspartyl-penicillamine | inhibits |  |  |
